Series [1] concerns HepG2 cells. In words: Fluorescence microscopy assay (Hoechst 33342). Type of series: cell-based, Human. The protocol:
HepG2 cells were inoculated in duplicate at 3×10^5/well density in 6-well plate, and allowed to attach at 37°C for 24 hours. Afterwards, cells were treated with 10 μM HCPT, 25 μM emodin and specific concentration EM-d-Rha (0.1μM, 0.5μM, 2.5μM), respectively. Cell control group was set in the same way. […] Medium were exchanged as described previously. In the end, all medium were discarded and cells were digested with 2mL 0.25% Trypsin-EDTA solution at 37°C for 5 min. After cells were harvested, cells were washed with PBS twice followed by centrifuging at 300×g for 5 minutes. Finally, cells were re-suspended in 100μL cold PBS after the supernatant was discarded. Cells were cultured in the dark for 10 minutes at room temperature after adding 100μL 1mg/mL Hoechst 33342 staining solution. Cells were harvested again as described previously to discard the staining solution. Wash the harvested cells twice with PBS before applying to the clean glass slides. The morphological changes of cells nuclei were observed and photographed under the fluorescence microscope (Olympus, Japan) at 350 nm excitation wavelength. The experiment was repeated three times.

The subject of a further series is MDCK cells. As to the kind of experiment: MTT cell viability assay, MDCK. Type of series: cell-based, Canine. Particulars: Canis lupus familiaris, 72 hours. As to the method:
(§1) The viability of cancer cells was evaluated by MTT assay. Briefly, cells were inoculated in 96-well culture plates at the density of 1×10^4/well with complete medium containing 10% fetal calf serum in a final volume of 0.2 mL. Cells were incubated at 37°C for at least 24 hours to allow optimal attachment. When the cells reached 60% confluence, they were treated with Cisplatin, HCPT and emodin rhamnopyranosides derivatives in various concentrations, and incubated in a humidity-controlled 5%CO2 incubator at 37°C for 72 hours. Medium were exchanged once every 24 hours. Cell control group and blank group were set up in the same manner, with each group having six parallel wells. Cell survival was assessed by directly adding 22 μL of 5mg/mL MTT to 0.2 mL medium. After three hours, the formazan precipitate was dissolved in 200μL isopropanol per well, and completely mixed under room temperature. Afterwards, the optical density of each well was detected at 570 nm wavelength by iMark microplate reader (Bio-rad,USA). This experiment was repeated at least three times.
Background: Tetrazolium dyes change colour on reduction, which living cells bring about.

The test system of series [2] is HepG2 cells. In words: MTT cell viability assay, HepG2. Type of series: cell-based, Human. Particulars: Homo sapiens, HepG2; MTT, 72 hours; read-out: IC50 values, HepG2. As to the method:
as §1

In a further series the test system is HeLa cells. As to the kind of experiment: MTT cell viability assay, HeLa. Particulars: Homo sapiens, HeLa; MTT, 72 hours; read-out: IC50 values, HeLa. Type of series: cell-based, Human. The protocol:
as §1

The subject of the next series is OVCAR-3 cells. In words: MTT cell viability assay, OVCAR-3. Type of series: cell-based, Human. Particulars: Homo sapiens, OVCAR-3; MTT, 72 hours; read-out: IC50 values, OVCAR-3. As to the method:
as §1

The test system of another series is A549 cells. In words: MTT cell viability assay, A549. Type of series: cell-based, Human. Particulars: Homo sapiens, A549; MTT, 72 hours; read-out: IC50 values, A549. The protocol:
as §1

Series [3] can be described thus: Solubility (structure-activity remark). Type of series: physicochemical. Particulars: one rhamnose introduced into emodin.

The source of these data is paper PMC4684281, “Antitumor Effects and Mechanism of Novel Emodin Rhamnoside Derivatives against Human Cancer Cells In Vitro” (PLoS ONE, 2015).

In brackets after ≈: the same amount, converted by molar mass. Bounds are passed on as bounds.

Take `CC[C@@]1(O)C(=O)OCc2c1cc1n(c2=O)Cc2cc3cc(O)ccc3nc2-1` [HCPT]: the “Nuclear morphology, Hoechst 33342” value in the series on HepG2 cells [1] (HepG2, 2.5μM, 48h) is “typical apoptotic nuclear morphology”.
The term IC50 denotes the point on the concentration scale where inhibition reaches its midpoint. Regarding `Cc1cc(O)c2c(c1)C(=O)c1cc(O)cc(O)c1C2=O` [S-1, 3-methyl-1,6,8-trihydroxyanthraquinone, reference compound], the half-maximal inhibitory concentration (IC50) came out at 5.81 µg/mL (≈ 21.5 µM) in the series with MDCK cells; 12.8 µg/mL (≈ 47.3 µM) in the series with HepG2 cells [2]; 12.1 µg/mL (≈ 44.9 µM) in the series with HeLa cells; 25.8 µg/mL (≈ 95.5 µM) in the series on OVCAR-3 cells; 19.5 µg/mL (≈ 72.3 µM) in the series on A549 cells. In addition, the “Nuclear morphology, Hoechst 33342” value in the series on HepG2 cells [1] (HepG2, 25μM) was “displayed apoptotic morphological changes”.
As to `Cc1cc(O)c2c(c1)C(=O)c1cc(O[C@@H]3O[C@@H](C)[C@H](O)[C@@H](O)[C@H]3O)cc(O)c1C2=O` [S-2], the IC50 in the series on MDCK cells, in the series with HepG2 cells [2], with HeLa cells, in the series with OVCAR-3 cells and in the series on A549 cells was > 20 µg/mL in each case.
As to `CC(=O)O[C@@H]1[C@@H](O)[C@H](C)O[C@@H](Oc2cc(O)c3c(c2)C(=O)c2cc(C)cc(O)c2C3=O)[C@@H]1OC(C)=O` [S-3], the IC50 in the series with MDCK cells, in the series on HepG2 cells [2], with HeLa cells, in the series with OVCAR-3 cells and in the series on A549 cells was > 20 µg/mL in each case. Further, the “Solubility of derivative relative to emodin” value in series [3] is recorded as “improved”.
On to `CC(=O)O[C@@H]1[C@@H](O)[C@@H](OC(C)=O)[C@H](Oc2cc(O)c3c(c2)C(=O)c2cc(C)cc(O)c2C3=O)O[C@H]1C` [S-4], for which the IC50 in the series with MDCK cells was > 20 µg/mL; in the series on HepG2 cells [2], > 20 µg/mL; in the series on HeLa cells it was > 20 µg/mL; with OVCAR-3 cells, > 20 µg/mL; in the series on A549 cells, 9.27 µg/mL (≈ 18.5 µM).
For the compound `CC(=O)O[C@@H]1[C@@H](OC(C)=O)[C@@H](O)[C@H](Oc2cc(O)c3c(c2)C(=O)c2cc(C)cc(O)c2C3=O)O[C@H]1C` [S-5], the IC50 in the series on MDCK cells is 14.8 µg/mL (≈ 29.6 µM); with HepG2 cells [2], 1.32 µg/mL (≈ 2.64 µM); with HeLa cells, 5.34 µg/mL (≈ 10.7 µM); in the series with OVCAR-3 cells, > 20 µg/mL; in the series on A549 cells it was 3.16 µg/mL (≈ 6.31 µM).
Take `CC(=O)O[C@@H]1[C@@H](O)[C@@H](O)[C@H](Oc2cc(O)c3c(c2)C(=O)c2cc(C)cc(O)c2C3=O)O[C@H]1C` [S-6]: the half-maximal inhibitory concentration (IC50) in the series on MDCK cells was 21.1 µg/mL (≈ 46 µM); in the series with HepG2 cells [2], > 20 µg/mL; with HeLa cells, > 20 µg/mL; in the series on OVCAR-3 cells, > 20 µg/mL; in the series on A549 cells, 2.25 µg/mL (≈ 4.91 µM).
Consider `COc1cc(C)cc2c1C(=O)c1c(OC)cc(O[C@@H]3O[C@@H](C)[C@H](O)[C@@H](OC(C)=O)[C@H]3OC(C)=O)cc1C2=O` [S-9], for which the half-inhibitory concentration (IC50) in the series with MDCK cells is 1.39 µg/mL (≈ 2.63 µM); in the series on HepG2 cells [2], 4.43 µg/mL (≈ 8.38 µM); with HeLa cells, 4.93 µg/mL (≈ 9.33 µM); in the series with OVCAR-3 cells it was 9.72 µg/mL (≈ 18.4 µM); in the series on A549 cells, 3.63 µg/mL (≈ 6.87 µM).
